Measurements as given in patent US20030162759A1, “Aldosterone blocker therapy to prevent or treat inflammation-related disorders” (priority 2000, published 2003).
“And” between values parts separate entries of the source, which are not always exact repeats. Equal entries are not always repeated. “Also recorded” adds a separate entry of the source.

Assays:
Collagen I = test: Assay C: Collagen I mRNA in left ventricle (TaqMan); type: in vivo, rat; settings: for Collagen type-I message: 30 days, compared to vehicle+salt controls; for Collagen-I mRNA: individual rats
Experimental: (§1) The procedure of Assay B was expanded upon in a further study. […] Myocardial tissue from animals in each treatment group was examined after 7, 14, or 30 days of treatment.
(§2) Potassium chloride supplementation was added to the saline solution in order to prevent the potential hypokalemia associated with aldosterone excess.
(§3) At the time of the surgery, an Alzet 2002 osmotic minipump (Alza Corp., Palo Alto, Calif.) containing either vehicle (9% ethanol/87% propylene glycol/4% dH2O) or 1.0 mg/mL d-aldosterone (Sigma Chemical, St. Louis, Mo.) was inserted subcutaneously at the nape of the neck. Aldosterone was administered at a dose of 0.75 g/hour. […] Animals were sacrificed from each group (n=8-13) after 7, 14, or 30 days of treatment.
Following exsanguination, hearts and kidneys were isolated, removed, rinsed in cold phosphate-buffered saline, and blotted dry. Kidneys were immediately bifurcated through the long axis with a razor blade and placed in 10% neutral buffered formalin (NBF, Richard-Allen Scientific, Kalamazoo, Mich.). For the hearts, the right ventricle (RV) was cut away from the left ventricle (LV), both ventricles were weighed using a Mettler AE163 balance (Mettler-Toledo, Inc., Hightstown, N.J.), and the RV was placed in 10% NBF. A 2 mm coronal slab of the LV apex was removed and frozen with dry ice/isopentane for analysis of gene expression and the remaining portion of the LV was placed in 10% NBF for fixation. Final wet trimming was completed after 3-4 days fixation where a second 2 mm coronal slab was removed for hydroxyproline analysis and a third 2 mm slab was removed from the equatorial region for histology.
(§4) The fluorogenic 5′-nuclease assay (TaqMan PCR) using Applied Biosystems' 7700 Sequence Detection System (Applied Biosystems, Foster City, Calif.) allowed for real time detection/quantitation of a specific gene by monitoring the increase in fluorescence of a gene-specific, dye-labeled oligonucleotide probe. Probes for target and reference genes were labeled at the 5′-end with a 6-carboxyfluorescein (6FAM) reporter dye and at the 3′-end with a 6-carboxy-N,N,N′,N′-tetramethylrhodamine (TAMRA) quencher dye. When the probe was annealed to the target gene, fluorescence of 6FAM was prevented by the close proximity of TAMRA. The exonuclease activity of Taq polymerase released the dyes from the oligonucleotide probe by displacing the probe from the target sequence resulting in fluorescence excitation in direct proportion to the amount of target message present. Data analysis was performed using the Sequence Detection System software from Applied Biosystems.
Primers and probes were designed using Oligo Primer Analysis Software, Version 5.0 (National Biosciences Inc. (NBI)-Wojciech Rychlik, Cascade, Colo.). Primers were synthesized by Life Technologies (Grand Island, N.Y.) and probes were synthesized by Applied Biosystems. Primer/probe sets were designed from known sequences of rat genes to be analyzed. All target gene values were normalized to a reference gene, constitutively expressed cyclophilin. Primer/probe sets sequences can be found in Table 8
RNA was extracted from frozen (−70° C.) left ventricle (LV) tissue (approximately 10-20 mg) using 1.5 mL RNA-STAT 60 according to manufacturer's instructions (Leedo Medical Laboratories, Inc., Houston, Tex.). Briefly, tissues were homogenized using a tissue homogenizer equipped with a 5 mm probe (Ultra-Turrax T8 Homogenizer, IKA Works, Inc. Wilmington, N.C.). Following homogenization, an equal volume of molecular grade chloroform (Sigma Chemical Co., St. Louis, Mo.) was incubated with periodic mixing for 10 min at room temperature. Samples were centrifuged at 12,000 g for 10 min and RNA was precipitated from the top layer by adding an equal volume of molecular grade isopropanol (Sigma Chemical Co.) followed by an overnight incubation at −80° C.

[1] = tested on: Intercellular Adhesion Molecule-1 (ICAM-1); test: Assay C: ICAM-1 relative mRNA expression in heart (TaqMan); type: in vivo, rat; settings: for ICAM, Mean / ICAM: mRNA; for ICAM, Mean: group mean; for ICAM: individual rats; for ICAM-1 mRNA expression in myocardium: time course 7, 14, 30 days, eplerenone 100 mg/kg/day
Experimental: as §1, §2, §3, §4
All primers and probes were designed using Primer Express software supplied with the 7700 Sequence Detection System and synthesized by Applied Biosystems. Standard curves using 5-fold dilutions of total RNA (from 200 ng to 320 pg) were performed to determine the efficiency of each primer/probe set in the TaqMan reaction prior to the analysis of the experimental samples. Primer/probe sets were designed from known sequences of rat genes to be analyzed. All target gene values were normalized to a reference gene, constitutively expressed cyclophilin. Primer/probe set sequences can be found in Table 8.
RNA was extracted from frozen (−80° C.) rat heart tissue using the Totally RNA Isolation Kit (Ambion, Inc., Austin, Tex.). Tissue was crushed using a stainless steel mortar and pestle, which had been chilled to −80° C. and transferred to a dounce homogenizer (Kontes, Vineland, N.J.) containing 3-10 mL cold denaturation buffer. Tissue was homogenized and transferred to a sterile, 15 mL polypropylene centrifuge tube. An equal volume of phenol:chloroform:isoamyl alcohol (25:24:1) was added, samples were shaken vigorously for 1 min, and incubated on ice for at least 15 min. Samples were centrifuged for 30 min at 10,000 g. The aqueous phase was removed, 1/10 volume of a sodium acetate solution (3.0 M NaOAc pH 4.5) was added, samples were shaken or inverted for 10 seconds, and acid-phenol (premixed with isoamyl alcohol):chloroform (5:1, Ambion, Inc.) was added at an volume equivalent to the starting sample volume. Samples were shaken vigorously for 1 min, followed by a 15-min incubation on ice, and centrifuged for 30 min at 10,000 g. The aqueous phase removed and placed in a clean polypropylene tube. An equal volume of isopropanol (Sigma, St. Louis, Mo.) was added and the samples were mixed and incubated overnight at −20° C. The samples were centrifuged for 30 min at 10,000 g, the supernatant was removed and the RNA pellet was resuspended in DNAse/RNAse-free water. Samples were frozen at −80° C. for at least 2 hours, thawed on wet ice, and diluted for quantitation.

Row | SMILES | Collagen type-I message (Collagen I) | Collagen-I mRNA (Collagen I; Table 9.14, 7-day protocol, listed as Aldosterone + salt) | Collagen-I mRNA (Collagen I; 14 days of treatment, relative to cyclophilin expression, listed as Aldosterone + salt) | Collagen-I mRNA (Collagen I; 30 days of treatment, relative to cyclophilin expression, listed as Aldosterone + salt) [AU] | Collagen-I (collagen type I mRNA) (Collagen I; mean ± SEM after 14 days of treatment, relative to cyclophilin expression) [AU] | ICAM, Mean ([1]; 14 days of treatment) [AU] | ICAM, Mean ([1]; 30 days of treatment) [AU] | ICAM ([1]; 7 days of treatment, listed as Aldosterone + salt) | ICAM ([1]; 14 days of treatment, listed as Aldosterone + salt) [AU] | ICAM ([1]; 30 days of treatment, listed as Aldosterone + salt) [AU] | ICAM-1 mRNA expression in myocardium [1] | Collagen-I mRNA, Mean (Collagen I; group mean, 30 days of treatment) [AU] | Collagen-I mRNA (Collagen I; 14 days of treatment, relative to cyclophilin expression, listed as Eplerenone + aldosterone + salt) | Collagen-I mRNA (Collagen I; 30 days of treatment, relative to cyclophilin expression, listed as Eplerenone + aldosterone + salt) | Collagen-I (collagen type I mRNA) (Collagen I; mean ± SEM after 7 days of treatment, relative to cyclophilin expression) [AU] | ICAM, Mean ([1]; 7 days of treatment) [AU] | ICAM ([1]; 7 days of treatment, listed as Eplerenone + aldosterone + salt) | ICAM ([1]; 14 days of treatment, listed as Eplerenone + aldosterone + salt) | ICAM ([1]; 30 days of treatment, listed as Eplerenone + aldosterone + salt)
1 | C[C@]12CCC(=O)C=C1CC[C@@H]1[C@@H]2[C@@H](O)C[C@]2(C=O)[C@@H](C(=O)CO)CC[C@@H]12 [aldosterone] | modest increase | 0.84 AU and 1.40 AU | 0.25 AU and 1.00 AU and 1.20 AU and 1.70 AU and 0.43 AU | 2.20 | 1.33 ± 0.24 | 1.47 | 1.81 | 1.39 AU and 0.80 AU and 1.68 AU | 1.16 | 1.50 | upregulated at day 14 and 30 | – | – | – | – | – | – | – | –
2 | COC(=O)[C@@H]1CC2=CC(=O)CC[C@]2(C)[C@@]23O[C@@H]2C[C@@]2(C)[C@@H](CC[C@@]24CCC(=O)O4)[C@H]13 [eplerenone, Pregn-4-ene-7,21-dicarboxylic acid, 9,11-epoxy-17-hydroxy-3-oxo-, γ-lactone, methyl ester, (7α, 11α, 17β) -] | modest increase | – | – | – | – | 1.19 | 1.22 | – | – | – | significantly reduced; also recorded: inhibition of early time-course expression of myocardial ICAM-1 and VCAM-1 | 2.53 | 0.90 AU and 1.14 AU and 0.50 AU | 2.98 AU and 2.90 AU | 0.85 ± 0.15 | 0.83 | 0.91 AU and 0.89 AU (2×) and 0.40 AU and 0.58 AU and 1.00 AU | 1.20 AU and 0.95 AU and 1.26 AU and 1.56 AU and 0.98 AU (2×) and 0.79 AU and 0.83 AU | 1.21 AU and 1.26 AU and 0.60 AU and 0.99 AU
